Data published in patent US12172983B2, “EGFR inhibitors” (Blueprint Medicines Corporation, priority 2019, dated 2024).
Read-outs that look alike come from different tables or passages of the source.

Columns and labels:
[1] = test system: phosphorylation of EGFR (Tyr1068) in NCI-H1975 cell line that harbors the EGFR L858R T790M mutations; test: NCI-H1975 pEGFR AlphaLISA assay; assay type: cell-based; conditions: 4-5 hours incubation, read-out: Ext pEGFR H1975
Method in brief: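 NCI-H1975 cells (EGFR L858R/T790M) seeded overnight, then treated with compound for 4-5 h at 37 °C/5% CO2. After lysis, p-EGFR (Tyr1068) quantified by AlphaLISA SureFire Ultra with acceptor then donor beads; IC50 fitted from percent inhibition versus log concentration.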

[2] = target: T1, EGFR (L858R T790M C797S) (Homo sapiens, UniProt P00533, C797S/L858R/T790M); test: Biochemical EGFR inhibition assay (Caliper mobility shift), EGFR LRTMCS mutant; conditions: inhibitory activity against EGFR LRTMCS mutant; apparent IC50; read-out: Ext Enz LRTMCS
T1 construct: purchased SignalChem E10-122VG
T1 sequence (P00533 25-1210 T790M/C797S/L858R): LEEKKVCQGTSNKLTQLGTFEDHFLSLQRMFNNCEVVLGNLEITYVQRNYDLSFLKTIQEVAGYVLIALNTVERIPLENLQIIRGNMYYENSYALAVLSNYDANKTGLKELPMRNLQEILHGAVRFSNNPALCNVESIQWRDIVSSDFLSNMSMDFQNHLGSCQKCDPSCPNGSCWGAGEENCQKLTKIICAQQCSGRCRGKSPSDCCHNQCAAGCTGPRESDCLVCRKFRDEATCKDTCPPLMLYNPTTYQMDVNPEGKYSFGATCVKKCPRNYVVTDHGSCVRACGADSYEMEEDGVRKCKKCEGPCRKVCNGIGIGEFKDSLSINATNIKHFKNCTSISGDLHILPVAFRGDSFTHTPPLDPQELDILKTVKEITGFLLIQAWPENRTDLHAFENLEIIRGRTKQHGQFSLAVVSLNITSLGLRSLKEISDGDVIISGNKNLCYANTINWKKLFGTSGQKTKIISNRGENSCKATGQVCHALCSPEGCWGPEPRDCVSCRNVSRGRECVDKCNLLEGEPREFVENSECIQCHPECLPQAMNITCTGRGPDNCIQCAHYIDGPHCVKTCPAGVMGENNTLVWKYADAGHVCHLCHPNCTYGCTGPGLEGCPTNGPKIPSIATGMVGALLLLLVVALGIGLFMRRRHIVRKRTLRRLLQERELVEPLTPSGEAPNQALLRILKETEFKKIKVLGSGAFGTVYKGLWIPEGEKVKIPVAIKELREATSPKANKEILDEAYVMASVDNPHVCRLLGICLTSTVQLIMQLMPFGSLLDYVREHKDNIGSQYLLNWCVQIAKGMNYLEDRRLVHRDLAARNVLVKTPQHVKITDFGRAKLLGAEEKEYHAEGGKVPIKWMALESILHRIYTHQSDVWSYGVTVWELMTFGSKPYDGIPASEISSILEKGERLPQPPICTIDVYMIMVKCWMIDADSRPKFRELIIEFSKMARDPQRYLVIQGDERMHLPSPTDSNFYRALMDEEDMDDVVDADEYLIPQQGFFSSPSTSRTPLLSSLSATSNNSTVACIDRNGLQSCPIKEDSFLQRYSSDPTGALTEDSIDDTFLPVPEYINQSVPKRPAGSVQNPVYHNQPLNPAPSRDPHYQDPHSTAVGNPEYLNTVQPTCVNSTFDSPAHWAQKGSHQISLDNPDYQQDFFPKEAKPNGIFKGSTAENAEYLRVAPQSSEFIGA
Method in brief: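 Kinase reactions proceed at 25° C. to 10%–20% conversion of total peptide, are terminated with 35 mM EDTA, and the phosphopeptide is resolved from substrate by electrophoretic mobility shift. Apparent IC50 values come from plotting percent activity against log compound concentration.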

[3] = Homo sapiens, NCI-H1975, inhibition of phosphorylation of mutant EGFR in NCI-H1975 cells
[4] = inhibition of phosphorylation of mutant EGFR in NCI-H1975 cells

SMILES | IC50 [1, 3] [nM] | IC50 [2] [nM] | IC50 [1, 4] [nM]
CC(C)c1ncc(N2C[C@H](CS(C)(=O)=O)[C@H]2C)c2cnc(Nc3ccnc(N4CC[C@@H](OC5CC5)[C@@H](F)C4)n3)cc12 [Compound 225] | ≤ 10 | ≤ 15 | 
CO[C@H]1CCN(c2nccc(Nc3cc4c(C(C)C)ccc(N5CC(CS(C)(=O)=O)C5)c4cn3)n2)C[C@H]1F [Compound 63, N-(2-((3R,4S)-3-fluoro-4-methoxypiperidin-1-yl)pyrimidin-4-yl)-5-isopropyl-8-(3-(methylsulfonylmethyl)azetidin-1-yl)isoquinolin-3-amine] | ≤ 10 | ≤ 15 | 
CCS(=O)(=O)C[C@H]1CN(c2ccc(C(C)C)c3cc(Nc4ccnc(N5CC[C@H](OC)[C@@H](O)C5)n4)ncc23)[C@@H]1C (single isomer, unassigned) [Compound 177, (3S,4S)-1-(4-(8-((2R,3S)-3-(ethylsulfonylmethyl)-2-methylazetidin-1-yl)-5-isopropylisoquinolin-3-ylamino)pyrimidin-2-yl)-4-methoxypiperidin-3-ol or (3R,4R)-1-(4-(8-((2R,3S)-3-(ethylsulfonylmethyl)-2-methylazetidin-1-yl)-5-isopropylisoquinolin-3-ylamino)pyrimidin-2-yl)-4-methoxypiperidin-3-ol] | ≤ 10 | ≤ 15 | 
CC(C)c1ccc(N2C[C@H](CS(C)(=O)=O)[C@H]2C)c2cnc(Nc3ccnc(N4CC[C@H](OCCO)[C@H](F)C4)n3)cc12 [Compound 228, 2-((3R,4S)-3-fluoro-1-(4-(5-isopropyl-8-((2R,3S)-2-methyl-3-(methylsulfonylmethyl)azetidin-1-yl)isoquinolin-3-ylamino)pyrimidin-2-yl)piperidin-4-yloxy)ethanol] | ≤ 10 | ≤ 15 | 
CC(C)c1ccc(N2CC(CS(=O)(=O)CCN(C)C)C2)c2cnc(Nc3ccnc(N4CC[C@@H](O)[C@@](C)(F)C4)n3)cc12 (single isomer, unassigned) [Compound 239] | ≤ 10 | ≤ 15 | 
CCS(=O)(=O)C[C@H]1CN(c2ncc(C(C)C)c3cc(Nc4ccnc(N5CC[C@H](OCCO)[C@H](F)C5)n4)ncc23)[C@@H]1C [Compound 250, 2-{[(3R,4S)-1-[4-({8-[(2R,3S)-3-[(ethanesulfonyl)methyl]-2-methylazetidin-1-yl]-5-(propan-2-yl)-2,7-naphthyridin-3-yl}amino)pyrimidin-2-yl]-3-fluoropiperidin-4-yl]oxy}ethan-1-ol] | ≤ 10 | ≤ 15 | 
CC(C)c1ccc(N2CC(CS(C)(=O)=O)C2)c2cnc(Nc3ccnc(N4CC[C@](C)(O)[C@](C)(F)C4)n3)cc12 (single isomer, unassigned) [Compound 113, (3R,4S)-3-fluoro-1-[4-({8-[3-(methanesulfonylmethyl)azetidin-1-yl]-5-(propan-2-yl)isoquinolin-3-yl}amino)pyrimidin-2-yl]-3,4-dimethylpiperidin-4-ol or (3S,4R)-3-fluoro-1-[4-({8-[3-(methanesulfonylmethyl)azetidin-1-yl]-5-(propan-2-yl)isoquinolin-3-yl}amino)pyrimidin-2-yl]-3,4-dimethylpiperidin-4-ol] | 10.1 to 20 | ≤ 15 | 
CC(C)c1ccc(N2CC(CS(C)(=O)=O)C2)c2cnc(Nc3ccnc(N4CCC5(OCCO5)[C@H](F)C4)n3)cc12 (single isomer, unassigned) [Compound 180, N-{2-[(6R)-6-fluoro-1,4-dioxa-8-azaspiro[4.5]decan-8-yl]pyrimidin-4-yl}-8-[3-(methanesulfonylmethyl)azetidin-1-yl]-5-(propan-2-yl)isoquinolin-3-amine or N-{2-[(6S)-6-fluoro-1,4-dioxa-8-azaspiro[4.5]decan-8-yl]pyrimidin-4-yl}-8-[3-(methanesulfonylmethyl)azetidin-1-yl]-5-(propan-2-yl)isoquinolin-3-amine] | 10.1 to 20 | ≤ 15 | 
[2H]C([2H])([2H])O[C@@H]1CCN(c2nccc(Nc3cc4c(C(C)C)cnc(N5C[C@H](CS(C)(=O)=O)[C@H]5C)c4cn3)n2)C[C@@H]1F (single isomer, unassigned) [Compound 284] | ≤ 10 | ≤ 15 | 
CC(C)c1ccc(N2CC(CS(C)(=O)=O)C2)c2cnc(Nc3cnnc(N4CCC5(CCO5)CC4)n3)cc12 [Compound 42, 8-[3-(methanesulfonylmethyl)azetidin-1-yl]-N-(3-{1-oxa-7-azaspiro[3.5]nonan-7-yl}-1,2,4-triazin-5-yl)-5-(propan-2-yl)isoquinolin-3-amine] | 10.1 to 20 | ≤ 15 | 
CO[C@@H]1CCN(c2nccc(Nc3cc4c(C(C)C)ccc(N5C[C@H](CS(C)(=O)=O)[C@H]5C)c4cn3)n2)C[C@@H]1O (single isomer, unassigned) [Compound 93, (3S,4R)-1-(4-(5-isopropyl-8-((2R,3S)-2-methyl-3-(methylsulfonylmethyl)azetidin-1-yl)isoquinolin-3-ylamino)pyrimidin-2-yl)-4-methoxypiperidin-3-ol or (3R,4S)-1-(4-(5-isopropyl-8-((2R,3S)-2-methyl-3-(methylsulfonylmethyl)azetidin-1-yl)isoquinolin-3-ylamino)pyrimidin-2-yl)-4-methoxypiperidin-3-ol] | ≤ 10 | ≤ 15 | 
CO[C@H]1CN(c2nccc(Nc3cc4c(C(C)C)cnc(N5C[C@H](CS(C)(=O)=O)[C@H]5C)c4cn3)n2)C[C@@H](F)[C@H]1O (single isomer, unassigned) [Compound 308, (3R,4S,5S)-3-fluoro-1-[4-({8-[(2R,3S)-3-(methanesulfonylmethyl)-2-methylazetidin-1-yl]-5-(propan-2-yl)-2,7-naphthyridin-3-yl}amino)pyrimidin-2-yl]-5-methoxypiperidin-4-ol or (3S,4R,5R)-3-fluoro-1-[4-({8-[(2R,3S)-3-(methanesulfonylmethyl)-2-methylazetidin-1-yl]-5-(propan-2-yl)-2,7-naphthyridin-3-yl}amino)pyrimidin-2-yl]-5-methoxypiperidin-4-ol] | 10.1 to 20 | ≤ 15 | 

The remaining lines, values ahead:

IC50 [1, 3] [nM] | IC50 [2] [nM] | IC50 [1, 4] [nM] | SMILES
≤ 10 | ≤ 15 |  | CC(C)c1ncc(N2C[C@H](CS(C)(=O)=O)[C@H]2C)c2cnc(Nc3ccnc(N4CC[C@H]5COC[C@H]54)n3)cc12 (single isomer, unassigned) [Compound 267, N-(2-((3aR,6aS)-hexahydro-1H-furo[3,4-b]pyrrol-1-yl)pyrimidin-4-yl)-5-isopropyl-8-((2R,3S)-2-methyl-3-((methylsulfonyl)methyl)azetidin-1-yl)-2,6-naphthyridin-3-amine or N-(2-((3aS,6aR)-hexahydro-1H-furo[3,4-b]pyrrol-1-yl)pyrimidin-4-yl)-5-isopropyl-8-((2R,3S)-2-methyl-3-((methylsulfonyl)methyl)azetidin-1-yl)-2,6-naphthyridin-3-amine]
30.1 to 50 | ≤ 15 |  | CC(CF)c1cnc(N2CC(CS(C)(=O)=O)C2)c2cnc(Nc3ccnc(N4CC[C@@H](O)[C@@](C)(F)C4)n3)cc12 (single isomer, unassigned) [Compound 163]
 | ≤ 15 | 20.1 to 30 | CO[C@H]1CCN(c2nccc(Nc3cc4c(C(C)C)ccc(N5C[C@H](CS(C)(=O)=O)[C@H]5C)c4cn3)n2)C[C@H]1C#N (single isomer, unassigned) [Compound 165, (3R,4R)-1-[4-({8-[(2R,3S)-3-(methanesulfonylmethyl)-2-methylazetidin-1-yl]-5-(propan-2-yl)isoquinolin-3-yl}amino)pyrimidin-2-yl-4-methoxypiperidine-3-carbonitrile or (3S,4S)-1-[4-({8-[(2R,3S)-3-(methanesulfonylmethyl)-2-methylazetidin-1-yl]-5-(propan-2-yl)isoquinolin-3-yl}amino)pyrimidin-2-yl]-4-methoxypiperidine-3-carbonitrile]
≤ 10 | ≤ 15 |  | CNCCO[C@@H]1CCN(c2nccc(Nc3cc4c(C(C)C)ccc(N5C[C@H](CS(C)(=O)=O)[C@H]5C)c4cn3)n2)C[C@@H]1F [Compound 240, N-{2-[(3S,4R)-3-fluoro-4-[2-(methylamino)ethoxy]piperidin-1-yl]pyrimidin-4-yl}-8-[(2R,3S)-3-(methanesulfonylmethyl)-2-methylazetidin-1-yl]-5-(propan-2-yl)isoquinolin-3-amine]
≤ 10 | ≤ 15 |  | COCCO[C@H]1CCN(c2nccc(Nc3cc4c(C(C)C)ccc(N5C[C@H](CS(C)(=O)=O)[C@H]5C)c4cn3)n2)C[C@H]1F (single isomer, unassigned) [Compound 246]
 | ≤ 15 | ≤ 10 | CO[C@H]1CCN(c2nccc(Nc3cc4c(C(C)C)cnc(N5CC(C[S@@](C)(=N)=O)[C@H]5C)c4cn3)n2)C[C@H]1F (single isomer, unassigned) [Compound 108, (1S)-(((2R)-1-(6-((2-((3R,4S)-3-fluoro-4-methoxypiperidin-1-yl)pyrimidin-4-yl)amino)-4-isopropyl-2,7-naphthyridin-1-yl)-2-methylazetidin-3-yl)methyl)(imino)(methyl)-λ^6-sulfanone or (1R)-(((2R)-1-(6-((2-((3R,4S)-3-fluoro-4-methoxypiperidin-1-yl)pyrimidin-4-yl)amino)-4-isopropyl-2,7-naphthyridin-1-yl)-2-methylazetidin-3-yl)methyl)(imino)(methyl)-λ^6-sulfanone]
